Test results reported in US20110224136A1, “INHIBITORS OF DIACYLGLYCEROL ACYLTRANSFERASE” (priority 2008, published 2011).

Molecular target: T1, human DGAT1 enzyme (Homo sapiens, UniProt O75907)
T1 construct: made in house; host or cells: Sf9 insect cells (microsomes)
T1 sequence (O75907 1-488): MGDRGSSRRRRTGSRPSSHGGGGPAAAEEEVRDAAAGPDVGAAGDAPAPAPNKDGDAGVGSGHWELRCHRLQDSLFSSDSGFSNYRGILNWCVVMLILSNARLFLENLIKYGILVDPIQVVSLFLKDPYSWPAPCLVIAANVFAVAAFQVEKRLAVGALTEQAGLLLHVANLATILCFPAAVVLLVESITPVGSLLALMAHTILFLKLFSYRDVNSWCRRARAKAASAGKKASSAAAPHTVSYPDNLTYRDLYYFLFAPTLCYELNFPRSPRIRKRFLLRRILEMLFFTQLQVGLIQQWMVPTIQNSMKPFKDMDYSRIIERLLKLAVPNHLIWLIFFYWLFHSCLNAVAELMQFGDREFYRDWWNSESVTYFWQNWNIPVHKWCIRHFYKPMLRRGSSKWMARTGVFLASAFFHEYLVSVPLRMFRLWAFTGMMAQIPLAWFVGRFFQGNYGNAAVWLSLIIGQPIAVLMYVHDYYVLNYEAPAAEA
Assay: in vitro DGAT1 inhibition assay (microsomes, [14C]-palmitoyl-CoA, scintillation proximity)
Format: biochemical
Conditions: human DGAT1 expressed in Sf9 insect cell microsomes; 2 hours at room temperature; read-out: hDGAT IC50
Protocol: A useful assay to determine the DGAT inhibitory activity of the inventive compounds is described below:
The in vitro assay to identify DGAT1 inhibitors uses human DGAT1 enzyme expressed in Sf9 insect cells prepared as microsomes. The reaction is initiated by the addition of the combined substrates 1,2-dioleoyl-sn-glycerol and [^14C]-palmitoyl-CoA and incubated with test compounds and microsomal membranes for 2 hours at room temperature. The assay is stopped by adding 0.5 mg wheat germ agglutinin beads in assay buffer with 1% Brij-35 and 1% 3-cholamidopropyldimethyl-ammonio-1-propane sulfonate. Plates are sealed with TopSeal and incubated for 18 hours to allow the radioactive triglyceride product to come into proximity with the bead. Plates are read on a TopCount instrument.
Percent inhibition was calculated as the percent of (test compound inhibition minus non-specific binding) relative to (total binding minus non-specific binding). IC50 values were determined by curve fitting the data to a Sigmoidal dose-response in GraphPad Prism utilizing the following equation:
Y=A+(B−A)/(1+10̂((Log IC50−X))),
where A and B are the bottom and top of the curve (highest and lowest inhibition), respectively, and X is the logarithm of concentration.

IC50 [nM] | SMILES
11 to 100 | O=C(Nc1ccc(N2CCN(C(=O)Nc3ccccc3F)CC2)nc1)c1oc(N2CCCCCC2)nc1C(F)(F)F [Compound 334, 2-(azepan-1-yl)-N-(6-(4-(2-fluorophenylcarbamoyl)piperazin-1-yl)pyridin-3-yl)-4-(trifluoromethyl)oxazole-5-carboxamide]
101 to 500 | O=C(Nc1ccc(N2CCN(C(=O)c3ccccc3F)CC2)nc1)c1oc(N2CCC(c3ccccc3)CC2)nc1C(F)(F)F [Compound 284, N-(6-(4-(2-fluorobenzoyl)piperazin-1-yl)pyridin-3-yl)-2-(4-phenylpiperidin-1-yl)-4-(trifluoromethyl)oxazole-5-carboxamide]
11 to 100 | Cc1ccccc1NC(=O)c1ccc(-c2ccc(NC(=O)c3oc(N4CCCC(C)C4)nc3C(F)(F)F)cc2)cn1 (stereo not shown) [Compound 232, 2-(3-methylpiperidin-1-yl)-N-(4-(6-(o-tolylcarbamoyl)pyridin-3-yl)phenyl)-4-(trifluoromethyl)oxazole-5-carboxamide]
11 to 100 | CN(CC1(c2ccccc2)CC1)c1nc(C(F)(F)F)c(C(=O)Nc2ccc(N3CCN(C(=O)Nc4ccccc4F)CC3)nc2)o1 [Compound 317, N-(6-(4-(2-fluorophenylcarbamoyl)piperazin-1-yl)pyridin-3-yl)-2-(methyl((1-phenylcyclopropyl)methyl)amino)-4-(trifluoromethyl)oxazole-5-carboxamide]
101 to 500 | CN(c1ncc(C(=O)Nc2ccc(N3CCN(C(=O)Nc4ccccc4F)CC3)nc2)c(C(F)(F)F)n1)C1CCCC1 [Compound 220, 2-(cyclopentyl(methyl)amino)-N-(6-(4-(2-fluorophenylcarbamoyl)piperazin-1-yl)pyridin-3-yl)-4-(trifluoromethyl)pyrimidine-5-carboxamide]
101 to 500 | O=C(Nc1ccc(N[C@H]2CCN(C(=O)Nc3ccccc3F)C2)nc1)c1sc(N2CCC(c3ccccc3)CC2)nc1C(F)(F)F [Compound 259, (S)—N-(6-(1-(2-fluorophenylcarbamoyl)pyrrolidin-3-ylamino)pyridin-3-yl)-2-(4-phenylpiperidin-1-yl)-4-(trifluoromethyl)thiazole-5-carboxamide]
11 to 100 | CC1CCCN(c2nc(C(F)(F)F)c(C(=O)Nc3ccc(O[C@@H]4CCN(C(=O)Nc5ccccc5F)C4)nc3)o2)C1 (stereo partly drawn) [Compound 263, N-(6-((R)-1-(2-fluorophenylcarbamoyl)pyrrolidin-3-yloxy)pyridin-3-yl)-2-(3-methylpiperidin-1-yl)-4-(trifluoromethyl)oxazole-5-carboxamide]
101 to 500 | CC1CCCN(c2nc(C(F)(F)F)c(C(=O)Nc3ccc(N4CCN(C(=O)Nc5ccccc5F)C[C@@H]4C)nc3)o2)C1 (stereo partly drawn) [Compound 315, N-(6-((S)-4-(2-fluorophenylcarbamoyl)-2-methylpiperazin-1-yl)pyridin-3-yl)-2-(3-methylpiperidin-1-yl)-4-(trifluoromethyl)oxazole-5-carboxamide]
101 to 500 | CN(Cc1nc(C(F)(F)F)c(C(=O)Nc2ccc(N3CCN(C(=O)Nc4ccccc4F)CC3)nc2)s1)c1ccccc1 [Compound 247, N-(6-(4-(2-fluorophenylcarbamoyl)piperazin-1-yl)pyridin-3-yl)-2-((methyl(phenyl)amino)methyl)-4-(trifluoromethyl)thiazole-5-carboxamide]
101 to 500 | CC1CCCN(c2nc(C(F)(F)F)c(C(=O)Nc3ccc(-c4ccc(C(=O)N5CCC(C(=O)O)CC5)cn4)cc3)o2)C1 (stereo not shown) [Compound 251, 1-(6-(4-(2-(3-methylpiperidin-1-yl)-4-(trifluoromethyl)oxazole-5-carboxamido)phenyl)nicotinoyl)piperidine-4-carboxylic acid]
101 to 500 | CC1CCCN(c2nc(C(F)(F)F)c(C(=O)Nc3ccc(-c4ccc(C(=O)O)nc4)cc3)o2)C1 (stereo not shown) [Compound 229, 5-(4-(2-(3-methylpiperidin-1-yl)-4-(trifluoromethyl)oxazole-5-carboxamido)phenyl)picolinic acid]
101 to 500 | O=C(Nc1ccc(N2CCN(C(=O)Nc3ccccc3F)CC2)nc1)c1sc(COc2ccccc2)nc1C(F)(F)F [Compound 252, N-(6-(4-(2-fluorophenylcarbamoyl)piperazin-1-yl)pyridin-3-yl)-2-(phenoxymethyl)-4-(trifluoromethyl)thiazole-5-carboxamide]
11 to 100 | O=C(Nc1ccc(N2CCN(C(=O)Nc3ccccc3F)CC2)nc1)c1sc(CSc2ccccc2)nc1C(F)(F)F [Compound 253, N-(6-(4-(2-fluorophenylcarbamoyl)piperazin-1-yl)pyridin-3-yl)-2-(phenylthiomethyl)-4-(trifluoromethyl)thiazole-5-carboxamide]
11 to 100 | O=C(Nc1ccc(N2CCN(C(=O)Nc3ccccc3F)CC2)nc1)c1oc(N2CC[C@H](c3ccccc3)C2)nc1C(F)(F)F [Compound 270, (R)—N-(6-(4-(2-fluorophenylcarbamoyl)piperazin-1-yl)pyridin-3-yl)-2-(3-phenylpyrrolidin-1-yl)-4-(trifluoromethyl)oxazole-5-carboxamide]
11 to 100 | Cc1ccccc1NC(=O)c1ccc(-c2ccc(NC(=O)c3oc(N4CCCC(C)C4)nc3C(F)(F)F)cn2)cc1 (stereo not shown) [Compound 333, 2-(3-methylpiperidin-1-yl)-N-(6-(4-(o-tolylcarbamoyl)phenyl)pyridin-3-yl)-4-(trifluoromethyl)oxazole-5-carboxamide]
101 to 500 | CC1CCCN(c2nc(C(F)(F)F)c(C(=O)Nc3ccc(N4CCN(C(=O)[C@H]5CC[C@H](C(=O)O)CC5)CC4)nc3)o2)C1 (stereo partly drawn) [Compound 341, trans-4-[[4-[5-[[[2-(3-methyl-1-piperidinyl)-4-(trifluoromethyl)-5-oxazolyl]carbonyl]amino]-2-pyridinyl]-1-piperazinyl]carbonyl]cyclohexanecarboxylic acid]
